Columns and labels:
CFU-GM from PMF patients = assay: Colony assay for hematopoietic progenitors, CFU-GM, PMF patients; assay type: cell-based; settings: Homo sapiens, 336 h, MF (n = 10), day 14, read-out: IC50, CFU-GM colony formation
Experimental: (§1) Figure 3 mTOR and JAK2 inhibitors preferentially suppress colony formation from hematopoietic progenitors of MPN patients as compared to healthy controls. Mononuclear cells from patients with PV or PMF (n = 10 each) or control subjects (n = 10) were plated at 10^5/mL in cytokine-supplemented methylcellulose medium for the growth of erythroid burst-forming unit (BFU-E) and granulocyte-macrophage colony-forming unit (CFU-GM), and CD34^+ cells (5×10^4/mL) were plated in collagen-based medium for megakaryocyte colony-forming unit (CFU-Mk). […] Colonies were enumerated on day 14 and expressed as a percentage of the colonies grown in control plates containing vehicle only.

[1] = system: EEC from peripheral blood mononuclear cells of PV patients; assay: EEC assay (erythropoietin-independent erythroid colonies), PV patients; settings: Homo sapiens, PBMC, 240 h, read-out: IC50 of EEC growth
SET2 cells [2] = assay: Cell cycle distribution analysis by flow cytometry, SET2; assay type: cell-based; settings: Homo sapiens, SET-2; SET2, median concentration; read-out: concentration giving 50% reduction of cells in the S-phase compared to controls
Experimental: (§2) Ba/F3-EPOR cells, both wt and VF, HEL and SET2 cells were plated at 2×10^4 in 96-well culture tissue plates with increasing concentrations of the drug(s), in triplicate, and the amount of viable cells was assessed at 48 h using the WST-1 assay (Roche, USA) after normalization to wells containing an equivalent volume of vehicle (DMSO) only. For clonogenic assay, 5×10^3 cells were plated in 0.5% agar in medium supplemented with 10% FBS (plus 1 U/mL EPO in case of Ba/F3-EPOR wt cells); variable amount of the drug(s) (or an equivalent volume of vehicle in control plates) was added once at the beginning of culture. Colonies were enumerated by inverted microscopy after 7 day incubation, in duplicate. Quantification of apoptotic cells was accomplished by flow cytometry using the Annexin-V-FLUOS Staining kit (Roche); at least 20,000 events were acquired. For cell cycle distribution analysis by flow cytometry, 1×10^6 cells were treated with ethanol 95%, RNase 10 µg/mL and propidium iodide […].

[3] = system: BFU-E from healthy controls; assay: Colony assay for hematopoietic progenitors, BFU-E, healthy controls; assay type: cell-based; settings: Homo sapiens, 336 h; Ctrl (n = 10), day 14; read-out: IC50, BFU-E colony formation
Experimental: as §1

BFU-E from PMF patients = assay: Colony assay for hematopoietic progenitors, BFU-E, PMF patients; assay type: cell-based; settings: Homo sapiens, 336 h; MF (n = 10), day 14; read-out: IC50, BFU-E colony formation
Experimental: as §1

CFU-GM from PV patients = assay: Colony assay for hematopoietic progenitors, CFU-GM, PV patients; assay type: cell-based; settings: Homo sapiens, 336 h, PV (n = 10), day 14, read-out: IC50, CFU-GM colony formation
Experimental: as §1

Ba/F3-EPOR VF cells [4] = assay: Apoptosis (Annexin V flow cytometry), Ba/F3-EPOR VF; assay type: cell-based, mouse; settings: for IC50: Mus musculus, 48 h, median, read-out: IC50 for apoptosis (Annexin V positive cells)
Experimental: as §2
(§3) Results shown are the Mean±SD of at least three experiments. In panel B, the percentage of Annexin V-positive cells was measured in cultures of Ba/F3-EPOR VF cells exposed to varying amount of the drugs for 48 h; percentage was calculated after subtraction of background apoptosis in cells incubated without drug. Results shown are the Mean±SD of at least three experiments. (TIF) Click here for additional data file.

Ba/F3-EPOR VF cells [5] = assay: Cell cycle distribution analysis by flow cytometry (propidium iodide), Ba/F3-EPOR VF; assay type: cell-based; settings: Mus musculus, after 24 hours, median value, read-out: concentration giving 50% reduction of the cells in the S-phase compared to untreated cells
Experimental: as §2, §3

[6] = system: CFU-Mk from healthy controls; assay: Colony assay for hematopoietic progenitors, CFU-Mk, healthy controls; assay type: cell-based; settings: Homo sapiens, 336 h; Ctrl (n = 10), day 14; read-out: IC50, CFU-Mk colony formation
Experimental: as §1

CFU-Mk from PV patients = assay: Colony assay for hematopoietic progenitors, CFU-Mk, PV patients; assay type: cell-based; settings: Homo sapiens, 336 h; PV (n = 10), day 14; read-out: IC50, CFU-Mk colony formation
Experimental: as §1

[7] = system: CD34+ cells from healthy controls; assay: CD34+ proliferation assay (WST-1, 48 h), healthy controls; assay type: cell-based; settings: Homo sapiens, CD34+ cell; healthy subjects n = 5, 48 h, cytokine cocktail
Experimental: (§4) To measure the drug-induced inhibition of CD34^+ cell growth, purified cells were plated at 3·10^4 cells/well in IDMEM supplemented with cytokines and variable amounts of the drugs were added. Cell proliferation was evaluated using the WST-1 Assay (Roche, USA) after 48 h and results were normalized to wells containing vehicle only.
(§5) CD34^+ cells from patients with PMF (n = 6) or control subjects (Ctr; n = 5) were plated at 2×10^5/mL in 96-well culture tissue plates with increasing concentrations of the drugs, in triplicate; viable cells were assessed after 48 hrs using the WST-1 assay and normalized to wells containing an equivalent volume of vehicle (DMSO) only.

SET2 cells [8] = assay: Apoptosis (Annexin V flow cytometry), SET2; assay type: cell-based; settings: Homo sapiens, SET-2; SET2, median
Experimental: as §2

CFU-Mk from PMF patients = assay: Colony assay for hematopoietic progenitors, CFU-Mk, PMF patients; assay type: cell-based; settings: Homo sapiens, 336 h; MF (n = 10), day 14; read-out: IC50, CFU-Mk colony formation
Experimental: as §1

[9] = system: CD34+ cells from PMF patients; assay: CD34+ proliferation assay (WST-1, 48 h), PMF patients; assay type: cell-based; settings: Homo sapiens, CD34+ cell; PMF patients n = 6, 48 h, cytokine cocktail
Experimental: as §4, §5

[10] = system: CFU-GM from healthy controls; assay: Colony assay for hematopoietic progenitors, CFU-GM, healthy controls; assay type: cell-based; settings: Homo sapiens, 336 h, Ctrl (n = 10), day 14, read-out: IC50, CFU-GM colony formation
Experimental: as §1

[11] = system: Ba/F3-EPOR wt cells (JAK2 wild-type); assay: Clonogenic assay in agar, Ba/F3-EPOR wt; assay type: cell-based; settings: Mus musculus, 168 h, semisolid culture, 7 days, 1 U/mL EPO, read-out: IC50 of colony formation (clonogenic assay)
Experimental: as §2

[12] = system: SET2 cells (JAK2V617F mutated); assay: Clonogenic assay in agar, SET2; assay type: cell-based; settings: Homo sapiens, SET-2
Experimental: as §2

[13] = system: HEL cells (JAK2V617F mutated); assay: Clonogenic assay in agar, HEL; assay type: cell-based; settings: Homo sapiens, Table 1
Experimental: as §2

[14] = system: Ba/F3-EPOR VF cells (JAK2V617F); assay: Clonogenic assay in agar, Ba/F3-EPOR VF; assay type: cell-based; settings: Mus musculus, 168 h, semisolid culture, 7 days, single drug, read-out: IC50 of colony formation (clonogenic assay)
Experimental: as §2

BFU-E from PV patients = assay: Colony assay for hematopoietic progenitors, BFU-E, PV patients; assay type: cell-based; settings: Homo sapiens, 336 h; PV (n = 10), day 14; read-out: IC50, BFU-E colony formation
Experimental: as §1

[15] = system: HEL cells (JAK2V617F mutated); assay: Inhibition of proliferation assay (WST-1, 48 h), HEL; assay type: cell-based; settings: Homo sapiens
Experimental: as §2

[16] = system: Ba/F3-EPOR VF cells (JAK2V617F); assay: Inhibition of proliferation assay (WST-1, 48 h), Ba/F3-EPOR VF; assay type: cell-based; settings: Mus musculus
Experimental: as §2

[17] = system: Ba/F3-EPOR wt cells (JAK2 wild-type); assay: Inhibition of proliferation assay (WST-1, 48 h), Ba/F3-EPOR wt; assay type: cell-based; settings: Mus musculus, 1 U/mL EPO, mean±SD, read-out: IC50 of cell proliferation
Experimental: as §2

[18] = system: SET2 cells (JAK2V617F mutated); assay: Inhibition of proliferation assay (WST-1, 48 h), SET2; assay type: cell-based; settings: Homo sapiens, SET-2, SET2, 48 h
Experimental: as §2

[19] = SET2, Table 1, read-out: IC50, clonogenic assay
[20] = SET2, Table 3, read-out: IC50, clonogenic potential, single drug
[21] = SET2, running text b32, read-out: concentration preventing colony formation (mean value)
[22] = BaF3, 48 h, Ba/F3 VF liquid culture maintained with Epo 1 U/mL, read-out: IC50 of cell proliferation in the presence of Epo
[23] = Ba/F3-EPOR VF, 48 h, single drug, cytokine-free medium, mean±SD, read-out: IC50 of cell proliferation
[24] = Table 3, read-out: IC50, proliferation, single drug
[25] = read-out: IC50, proliferation assay

SMILES | IC50 (CFU-GM from PMF patients) [nM] | IC50 [1] [nM] | IC50 (SET2 cells [2]) [nM] | IC50 [3] [nM] | IC50 (BFU-E from PMF patients) [nM] | IC50 (CFU-GM from PV patients) [nM] | IC50 (Ba/F3-EPOR VF cells [4]) [nM] | IC50 (Ba/F3-EPOR VF cells [5]) [nM] | IC50 [6] [nM] | IC50 (CFU-Mk from PV patients) [nM] | IC50 [7] [nM] | IC50 (SET2 cells [8]) [nM] | IC50 (CFU-Mk from PMF patients) [nM] | IC50 [9] [nM] | IC50 [10] [nM] | IC50 [11] [nM] | IC50 [12, 19] [nM] | IC50 [12, 20] [nM] | IC50 [12, 21] [nM] | IC50 [13] [nM] | also measured
N#CC[C@H](C1CCCC1)n1cc(-c2ncnc3[nH]ccc23)cn1 [Ruxolitinib, ruxolitinib] | 43 ± 4 | 1.8 ± 1 | 10000 | 167 ± 70 | 46 ± 10 | 39 ± 6 | 1300 | 1870 | 12 ± 5 | 4 ± 2 | > 5000 | 500 | 4 ± 3 | 840 ± 300 | 209 ± 40 | – | – | – | – | – | –
Cc1cc(Nc2nc(N[C@@H](C)c3ncc(F)cn3)ncc2Cl)n[nH]1 [AZD1480] | 9 ± 3 | 19 ± 2 | 1500 | 226 ± 17 | 27 ± 8 | 46 ± 5 | 800 | 1200 | 400 ± 12 | 44 ± 2 | 891 ± 100 | 400 | 59 ± 3 | 474 ± 30 | 193 ± 13 | 750 ± 100 | 35 ± 10 | 35 ± 10 | 35 | 460 ± 30 | IC50 [14]: 19 ± 11 nM; IC50 (BFU-E from PV patients): 135 ± 19 nM; IC50 [15]: 860 ± 20 nM; IC50 [16, 22]: 707 ± 11 nM; IC50 [16, 23]: 313 ± 23 nM; IC50 [17]: 752 ± 30 nM; IC50 [18, 24]: 90 ± 5 nM; IC50 [18, 25]: 90 ± 5 nM
CO[C@H]1C[C@@H]2CC[C@@H](C)[C@@](O)(O2)C(=O)C(=O)N2CCCC[C@H]2C(=O)O[C@H]([C@H](C)C[C@@H]2CC[C@@H](OCCO)[C@H](OC)C2)CC(=O)[C@H](C)/C=C(\C)[C@@H](O)[C@@H](OC)C(=O)[C@H](C)C[C@H](C)/C=C/C=C/C=C/1C [RAD001, Everolimus] | 46 ± 13 | 15 ± 10 | 33000 | 432 ± 22 | 42 ± 10 | 75 ± 4 | 5000 | 6500 | 572 ± 13 | 50 ± 5 | > 5000 | 38000 | 44 ± 5 | 271 ± 100 | 335 ± 16 | 22 ± 10 | 44 ± 15 | 44 ± 15 | 44 | 930 ± 10 | drug concentration at which an increase of apoptotic cells became appreciable (Ba/F3-EPOR VF cells [4]; followed by a plateau): > 3.3 µM; IC50 [14]: 4 ± 2 nM; IC50 (BFU-E from PV patients): 91 ± 15 nM; IC50 [15]: 14000 ± 2800 nM; IC50 [16, 22]: 1230 nM; IC50 [16, 23]: 651 ± 50 nM; IC50 [17]: 11000 nM; IC50 [18, 24]: 17000 nM; IC50 [18, 25]: 17000 nM
